Tests used:
Assay type in all cases: in vivo
Conditions in all cases: application to foliage, 320 g/ha
Triticum aestivum = test: Test Example 4: effect on crop by application to foliage (diluvial soil, plastic box)
Description: (§1) 5 Herbicidal ratio of 90% or more (almost completely withered) 4 Herbicidal ratio of 70% or more and less than 90% 3 Herbicidal ratio of 40% or more and less than 70% 2 Herbicidal ratio of 20% or more and less than 40% 1 Herbicidal ratio of 5% or more and less than 20% 0 Herbicidal ratio of 5% or less (almost no effect) [Test Example 4] Herbicidal Effect Test by Application to Foliage Sterilized diluvial soil was placed in a plastic box having a length of 21 cm, a width of 13 cm, and a depth of 7 cm. Each of the seeds of Digitaria ciliaris, Setaria viridis, Echinochloa crus-galli var. crus-galli, Avena fatua, Alopecurus myosuroides, Lolium multiflorum Lam., Apera spica-venti., Abutilon theophrasti, Amaranthus retroflexus, Chenopodium album, Stellaria media, Galium spurium, Veronica persica, Zea mays, Glycine max, Oryza sativa, Triticum aestivum, Beta vulgaris ssp. vulgaris, and Brassica campestris L. was sowed in a spot-like manner and was covered with the soil of about 1.5 cm thick. Thereafter, the plants were grown in the greenhouse of 25° C. to 30° C. After the plants were grown for 14 days, the emulsion agent containing the compound of the present invention prepared in accordance with Formulation Example 2 was diluted with water so as to be a predetermined herbicide amount and the diluted compound was uniformly applied to a stem and leaf part with a small-size spray. Three weeks after the herbicide application, effects on each plant were investigated in accordance with the criteria of Test Example 1. A: Echinochloa oryzicola Vasing., B: Scirpus juncoides, C: Monochoria vaginalis, D: Leptochloa chinensis, E: Cyperus difformis, F: Digitaria ciliaris, G: Setaria viridis, H: Echinochloa crus-galli var. crus-galli, I: Avena fatua, J: Alopecurus myosuroides, K: Lolium multiflorum Lam., L: Apera spica-venti., M: Abutilon theophrasti, N: Amaranthus retroflexus, O: Chenopodium album, P: Stellaria media, Q: Galium spurium, R: Veronica persica, a: transplanted Oryza sativa, b: directly sowed Oryza sativa, c: Zea mays, d: Glycine max, e: Triticum aestivum, f: Beta vulgaris ssp. vulgaris, and g: Brassica campestris L. The application herbicide amount (g/ha) means an amount that a concentration is adjusted so that, when an application amount is converted into per hectare (1 ha), the herbicide is applied by the number of grams (g) of the described value.

Glycine max = test: as above
Description: as §1

Brassica campestris L. = test: as above
Description: as §1

[1] = tested on: Beta vulgaris ssp. vulgaris; test: as above
Description: as §1

Zea mays = test: as above
Description: as §1

[2] = tested on: directly sowed Oryza sativa; test: as above
Description: as §1

Abutilon theophrasti = test: Test Example 4: herbicidal effect by application to foliage (diluvial soil, plastic box)
Description: as §1

Stellaria media = test: as above
Description: as §1

Chenopodium album = test: as above
Description: as §1

Galium spurium = test: as above
Description: as §1

Setaria viridis = test: as above
Description: as §1

Lolium multiflorum Lam. = test: as above
Description: as §1

[3] = tested on: Echinochloa crus-galli var. crus-galli; test: as above
Description: as §1

Apera spica-venti. = test: as above
Description: as §1

Avena fatua = test: as above
Description: as §1

Alopecurus myosuroides = test: as above
Description: as §1

Amaranthus retroflexus = test: as above
Description: as §1

Digitaria ciliaris = test: as above
Description: as §1

Veronica persica = test: as above
Description: as §1

Cc1nnc(NC(=O)c2ccc(C(F)(F)F)n3c(=O)n(Cc4ccccc4)nc23)o1 [6-006]
effect on crop, e (Triticum aestivum) (Triticum aestivum): 0 (Herbicidal ratio of 5% or less (almost no effect))
effect on crop, c (Glycine max) (Glycine max): 0 (Herbicidal ratio of 5% or less (almost no effect))
effect on crop, g (Brassica campestris L.) (Brassica campestris L.): 0 (Herbicidal ratio of 5% or less (almost no effect))
effect on crop, f (Beta vulgaris ssp. vulgaris) [1]: 0 (Herbicidal ratio of 5% or less (almost no effect))
effect on crop, b (Zea mays) (Zea mays): 0 (Herbicidal ratio of 5% or less (almost no effect))
effect on crop, d (directly sowed Oryza sativa) [2]: 0 (Herbicidal ratio of 5% or less (almost no effect))
herbicidal effect, M (Abutilon theophrasti) (Abutilon theophrasti): 1 (Herbicidal ratio of 5% or more and less than 20%)
herbicidal effect, P (Stellaria media) (Stellaria media): 1 (Herbicidal ratio of 5% or more and less than 20%)
herbicidal effect, O (Chenopodium album) (Chenopodium album): 3 (Herbicidal ratio of 40% or more and less than 70%)
herbicidal effect, Q (Galium spurium) (Galium spurium): 0 (Herbicidal ratio of 5% or less (almost no effect))
herbicidal effect, G (Setaria viridis) (Setaria viridis): 0 (Herbicidal ratio of 5% or less (almost no effect))
herbicidal effect, K (Lolium multiflorum Lam.) (Lolium multiflorum Lam.): 0 (Herbicidal ratio of 5% or less (almost no effect))
herbicidal effect, H (Echinochloa crus-galli var. crus-galli) [3]: 0 (Herbicidal ratio of 5% or less (almost no effect))
herbicidal effect, L (Apera spica-venti.) (Apera spica-venti.): 0 (Herbicidal ratio of 5% or less (almost no effect))
herbicidal effect, I (Avena fatua) (Avena fatua): 0 (Herbicidal ratio of 5% or less (almost no effect))
herbicidal effect, J (Alopecurus myosuroides) (Alopecurus myosuroides): 0 (Herbicidal ratio of 5% or less (almost no effect))
herbicidal effect, N (Amaranthus retroflexus) (Amaranthus retroflexus): 0 (Herbicidal ratio of 5% or less (almost no effect))
herbicidal effect, F (Digitaria ciliaris) (Digitaria ciliaris): 0 (Herbicidal ratio of 5% or less (almost no effect))
herbicidal effect, R (Veronica persica) (Veronica persica): 1 (Herbicidal ratio of 5% or more and less than 20%)

CCn1nc2c(C(=O)Nc3ncnn3C)ccc(C(F)(F)F)n2c1=O [6-007]
effect on crop, e (Triticum aestivum) (Triticum aestivum): 0 (Herbicidal ratio of 5% or less (almost no effect))
effect on crop, c (Glycine max) (Glycine max): 0 (Herbicidal ratio of 5% or less (almost no effect))
effect on crop, g (Brassica campestris L.) (Brassica campestris L.): 0 (Herbicidal ratio of 5% or less (almost no effect))
effect on crop, f (Beta vulgaris ssp. vulgaris) [1]: 3 (Herbicidal ratio of 40% or more and less than 70%)
effect on crop, b (Zea mays) (Zea mays): 0 (Herbicidal ratio of 5% or less (almost no effect))
effect on crop, d (directly sowed Oryza sativa) [2]: 2 (Herbicidal ratio of 20% or more and less than 40%)
herbicidal effect, M (Abutilon theophrasti) (Abutilon theophrasti): 2 (Herbicidal ratio of 20% or more and less than 40%)
herbicidal effect, P (Stellaria media) (Stellaria media): 0 (Herbicidal ratio of 5% or less (almost no effect))
herbicidal effect, O (Chenopodium album) (Chenopodium album): 3 (Herbicidal ratio of 40% or more and less than 70%)
herbicidal effect, Q (Galium spurium) (Galium spurium): 0 (Herbicidal ratio of 5% or less (almost no effect))
herbicidal effect, G (Setaria viridis) (Setaria viridis): 0 (Herbicidal ratio of 5% or less (almost no effect))
herbicidal effect, K (Lolium multiflorum Lam.) (Lolium multiflorum Lam.): 0 (Herbicidal ratio of 5% or less (almost no effect))
herbicidal effect, H (Echinochloa crus-galli var. crus-galli) [3]: 0 (Herbicidal ratio of 5% or less (almost no effect))
herbicidal effect, L (Apera spica-venti.) (Apera spica-venti.): 0 (Herbicidal ratio of 5% or less (almost no effect))
herbicidal effect, I (Avena fatua) (Avena fatua): 0 (Herbicidal ratio of 5% or less (almost no effect))
herbicidal effect, J (Alopecurus myosuroides) (Alopecurus myosuroides): 0 (Herbicidal ratio of 5% or less (almost no effect))
herbicidal effect, N (Amaranthus retroflexus) (Amaranthus retroflexus): 3 (Herbicidal ratio of 40% or more and less than 70%)
herbicidal effect, F (Digitaria ciliaris) (Digitaria ciliaris): 0 (Herbicidal ratio of 5% or less (almost no effect))
herbicidal effect, R (Veronica persica) (Veronica persica): 0 (Herbicidal ratio of 5% or less (almost no effect))

CCn1nc2c(C(=O)Nc3nonc3C)ccc(C(F)(F)F)n2c1=O [6-008]
effect on crop, e (Triticum aestivum) (Triticum aestivum): 0 (Herbicidal ratio of 5% or less (almost no effect))
effect on crop, c (Glycine max) (Glycine max): 0 (Herbicidal ratio of 5% or less (almost no effect))
effect on crop, g (Brassica campestris L.) (Brassica campestris L.): 0 (Herbicidal ratio of 5% or less (almost no effect))
effect on crop, f (Beta vulgaris ssp. vulgaris) [1]: 1 (Herbicidal ratio of 5% or more and less than 20%)
effect on crop, b (Zea mays) (Zea mays): 0 (Herbicidal ratio of 5% or less (almost no effect))
effect on crop, d (directly sowed Oryza sativa) [2]: 1 (Herbicidal ratio of 5% or more and less than 20%)
herbicidal effect, M (Abutilon theophrasti) (Abutilon theophrasti): 1 (Herbicidal ratio of 5% or more and less than 20%)
herbicidal effect, P (Stellaria media) (Stellaria media): 1 (Herbicidal ratio of 5% or more and less than 20%)
herbicidal effect, O (Chenopodium album) (Chenopodium album): 3 (Herbicidal ratio of 40% or more and less than 70%)
herbicidal effect, Q (Galium spurium) (Galium spurium): 0 (Herbicidal ratio of 5% or less (almost no effect))
herbicidal effect, G (Setaria viridis) (Setaria viridis): 0 (Herbicidal ratio of 5% or less (almost no effect))
herbicidal effect, K (Lolium multiflorum Lam.) (Lolium multiflorum Lam.): 0 (Herbicidal ratio of 5% or less (almost no effect))
herbicidal effect, H (Echinochloa crus-galli var. crus-galli) [3]: 0 (Herbicidal ratio of 5% or less (almost no effect))
herbicidal effect, L (Apera spica-venti.) (Apera spica-venti.): 0 (Herbicidal ratio of 5% or less (almost no effect))
herbicidal effect, I (Avena fatua) (Avena fatua): 0 (Herbicidal ratio of 5% or less (almost no effect))
herbicidal effect, J (Alopecurus myosuroides) (Alopecurus myosuroides): 0 (Herbicidal ratio of 5% or less (almost no effect))
herbicidal effect, N (Amaranthus retroflexus) (Amaranthus retroflexus): 0 (Herbicidal ratio of 5% or less (almost no effect))
herbicidal effect, F (Digitaria ciliaris) (Digitaria ciliaris): 0 (Herbicidal ratio of 5% or less (almost no effect))
herbicidal effect, R (Veronica persica) (Veronica persica): 0 (Herbicidal ratio of 5% or less (almost no effect))

From patent US9708314B2, “Heterocyclic amide compound” (NISSAN CHEMICAL INDUSTRIES, LTD., priority 2013, dated 2017)
